Test results reported in ChEMBL document CHEMBL5154887, “Novel CRBN-Recruiting Proteolysis-Targeting Chimeras as Degraders of Stimulator of Interferon Genes with In Vivo Anti-Inflammatory Efficacy” (J Med Chem, 2022).

Assays:
[1] = molecular target: T1, Protein cereblon/Stimulator of interferon genes protein (Homo sapiens, UniProt Q96SW2+Q86WV6); experiment: Protac activity at CRBN/STING in human THP-1 cells assessed as increase in STING degradation at 10 uM incubated for 48 hrs by Western blot analysis relative to control; assay type: cell-based
Target sequence in this assay (Q86WV6 whole entry, looked up): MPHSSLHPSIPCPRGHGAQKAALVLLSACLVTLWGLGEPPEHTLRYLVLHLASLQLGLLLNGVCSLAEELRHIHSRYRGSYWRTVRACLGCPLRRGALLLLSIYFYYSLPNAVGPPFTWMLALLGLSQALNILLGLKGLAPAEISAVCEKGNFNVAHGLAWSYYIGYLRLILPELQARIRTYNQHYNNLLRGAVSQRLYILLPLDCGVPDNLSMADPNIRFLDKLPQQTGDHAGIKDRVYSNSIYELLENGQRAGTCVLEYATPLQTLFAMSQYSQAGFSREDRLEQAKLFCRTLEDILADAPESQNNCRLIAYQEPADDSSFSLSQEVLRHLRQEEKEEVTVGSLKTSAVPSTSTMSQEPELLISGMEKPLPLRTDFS
Target sequence in this assay (Q96SW2 whole entry, looked up): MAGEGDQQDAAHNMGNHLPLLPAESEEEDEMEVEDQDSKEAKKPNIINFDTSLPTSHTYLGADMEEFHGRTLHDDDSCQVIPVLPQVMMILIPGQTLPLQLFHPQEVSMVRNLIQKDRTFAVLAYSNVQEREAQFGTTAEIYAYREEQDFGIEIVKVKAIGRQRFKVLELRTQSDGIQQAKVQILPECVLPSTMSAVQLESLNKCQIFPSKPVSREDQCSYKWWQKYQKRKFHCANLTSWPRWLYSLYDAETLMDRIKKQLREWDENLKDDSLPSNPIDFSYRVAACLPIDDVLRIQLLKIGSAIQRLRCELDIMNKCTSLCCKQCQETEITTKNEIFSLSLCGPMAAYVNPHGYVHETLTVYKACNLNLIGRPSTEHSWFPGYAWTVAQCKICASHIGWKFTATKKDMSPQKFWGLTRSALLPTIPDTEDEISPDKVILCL

[2] = system: L02; experiment: Cytotoxicity against human L02 cells assessed as reduction in cell viability at <10 uM by MTT assay; assay type: toxicity, cell-based; details: l02, 10 µM
[3] = molecular target: T1, Protein cereblon/Stimulator of interferon genes protein; experiment: Protac activity at CRBN/STING in human THP-1 cells assessed as increase in STING degradation incubated for 48 hrs by Western blot analysis; assay type: cell-based
Target sequence in this assay (Q96SW2 whole entry): as the sequence (Q96SW2 whole entry, looked up) above
Target sequence in this assay (Q86WV6 whole entry): as the sequence (Q86WV6 whole entry, looked up) above

[4] = Cytotoxicity against HEK293-A cells assessed as reduction in cell viability at <10 uM by MTT assay; assay type: toxicity, cell-based; details: human
[5] = Cytotoxicity against mouse C17.2 cells assessed as reduction in cell viability at <10 uM by MTT assay; assay type: toxicity, cell-based; details: c17.2, 10 µM

- Activity [1]: 62%
- DC50 [3]: 9.2 µM
Structure (SMILES): O=C(/C=C/C(=O)Nc1ccc(NC(=O)c2ccc([N+](=O)[O-])o2)cc1)NCCCCCNc1cccc2c1C(=O)N(C1CCC(=O)NC1=O)C2=O (stereo not given)
- Activity [2]: Non-Toxic
- Activity [4]: Non-Toxic
- Activity [5]: Non-Toxic
